In ChEMBL document CHEMBL1137576, “Interactions of hepatitis B core antigen and peptide inhibitors” (J Med Chem, 2007):
Where a SMILES comes first, the peptide text is derived from it.

How the values were obtained:
[1] = molecular target: Core antigen (Hepatitis B virus) (UniProt Q03732); assay: (§1) Binding affinity to HBcAg
Core antigen = Core antigen (Hepatitis B virus, UniProt Q03732); assay: as §1
Core antigen, sequence (Q03732 whole entry): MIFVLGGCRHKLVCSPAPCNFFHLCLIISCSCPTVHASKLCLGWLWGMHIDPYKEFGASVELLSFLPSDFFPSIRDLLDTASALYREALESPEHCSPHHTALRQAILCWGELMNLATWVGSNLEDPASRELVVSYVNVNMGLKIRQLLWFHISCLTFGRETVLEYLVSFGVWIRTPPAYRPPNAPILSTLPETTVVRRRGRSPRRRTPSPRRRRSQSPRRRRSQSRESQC

Core antigen (Hepatitis B virus), sequence (Q03732 as listed by the source): as the sequence (Q03732 whole entry) above

SMILES | Ka [1] | Kd (Core antigen) [µM]
CSCC[C@H](NC(=O)[C@H](CCCNC(=N)N)NC(=O)CNC(=O)[C@H](CC(C)C)NC(=O)[C@H](CC(C)C)NC(=O)[C@H](CO)NC(=O)[C@H](CCCNC(=N)N)NC(=O)[C@H](Cc1cnc[nH]1)NC(=O)[C@@H](N)CCSC)C(=O)N[C@@H](CCCCN)C(=O)NCC(=O)N[C@@H](C)C(=O)O | 1.26 10^4/M | 79.4
CC[C@H](C)[C@H](NC(=O)[C@H](CC(N)=O)NC(=O)[C@H](CO)NC(=O)[C@H](Cc1ccccc1)NC(=O)[C@H](Cc1ccccc1)NC(=O)[C@H](CO)NC(=O)[C@@H](N)Cc1c[nH]c2ccccc12)C(=O)O (H-WSFFSNI-OH) | 5.4 10^4/M | 18.5
